Experimental data as given in US4346102A, “3H-Dihydrofuranone-2 derivatives and pharmaceutical use thereof” (Delalande S.A., priority 1979, dated 1982).

Test system: not listed separately
Assay: Acute toxicity, LD 50 in mice, oral
Settings: mouse, in vivo

SMILES | LD50 [mg/kg]
CC(=O)OC[C@H]1C[C@@H](c2ccc(OCc3cccc([N+](=O)[O-])c3)cc2)C(=O)O1 (relative stereo) [7 B] | > 2000
COCC1C=C(c2ccc(OCc3ccccc3)cc2)C(=O)O1 (stereo not drawn) [Compound 20] | > 2000
O=C1O[C@@H](CO)C[C@@H]1c1ccc(OCc2cccc([N+](=O)[O-])c2)cc1 (relative stereo) [6 A] | > 2000
COCC1CC(c2ccc(OCCCCC#N)cc2)C(=O)O1 (stereo not drawn) [Compound 4] | > 2000
COC[C@H]1C[C@@H](c2ccc(OCc3cc(C#N)cc([N+](=O)[O-])c3)cc2)C(=O)O1 (relative stereo) [17 B] | 1700
N[C@@H]1C[C@H]1c1ccccc1 (relative stereo) [TRANYLCYPROMINE, reference compound] | 58
O=C1OC(CO)CC1c1ccc(OCC2CCCCC2)cc1 (stereo not drawn) [Compound 2] | > 2000
COC[C@H]1C[C@@H](c2ccc(OCc3cccc([N+](=O)[O-])c3)cc2)C(=O)O1 (relative stereo) [8 B] | 2000
COC[C@@H]1C[C@H](c2ccc(OCc3cccc(C#N)c3)cc2)C(=O)O1 (relative stereo) [13 B] | > 2000
O=C1O[C@@H](CO)C[C@H]1c1ccc(OCc2cccc([N+](=O)[O-])c2)cc1 (relative stereo) [6 B] | > 2000
COCC1C=C(c2ccc(OCc3cccc(Cl)c3)cc2)C(=O)O1 (stereo not drawn) [Compound 11] | > 2000
COC[C@H]1C[C@@H](c2ccc(OCc3ccc(F)c(Cl)c3)cc2)C(=O)O1 (relative stereo) [18 B] | > 2000
C#CCN(C)Cc1ccccc1 [PARGYLINE, reference compound] | 480
COCC1C=C(c2ccc(OCc3ccc(F)c(Cl)c3)cc2)C(=O)O1 (stereo not drawn) [Compound 19] | > 2000
N#Cc1cc(COc2ccc(C3CC(CO)OC3=O)cc2)cc([N+](=O)[O-])c1 (stereo not drawn) [Compound 16] | > 2000
COC[C@H]1C[C@@H](c2ccc(OCCCCCl)cc2)C(=O)O1 (relative stereo) [3 B] | 2000
C#CCN(C)C(C)Cc1ccccc1 (stereo not drawn) [reference compound] | 520
COCC1C=C(c2ccc(OCc3cccc([N+](=O)[O-])c3)cc2)C(=O)O1 (stereo not drawn) [Compound 9] | > 2000
COC[C@@H]1C[C@@H](c2ccc(OCc3cccc(C#N)c3)cc2)C(=O)O1 (relative stereo) [13 A] | > 2000
COC[C@H]1C[C@H](c2ccc(OCc3cccc(Cl)c3)cc2)C(=O)O1 (relative stereo) [10 A] | > 2000
COC[C@H]1C[C@@H](c2ccc(OCc3cccc(Cl)c3)cc2)C(=O)O1 (relative stereo) [10 B] | > 2000
COC[C@H]1C[C@H](c2ccc(OCc3cc(C#N)cc([N+](=O)[O-])c3)cc2)C(=O)O1 (relative stereo) [17 A] | > 2000
COC[C@H]1C[C@H](c2ccc(OCc3cccc([N+](=O)[O-])c3)cc2)C(=O)O1 (relative stereo) [8 A] | > 2000
O=C(CCNNC(=O)c1ccncc1)NCc1ccccc1 [NIALAMIDE, reference compound] | 1100

Test system: ptosis (reserpine)
Assay: Test A: antagonism with respect to ptosis observed one hour after intravenous injection of reserpine in mice
Type: in vivo
Settings: Mus musculus, 1 h; mice, oral; ptosis one hour after reserpine 2 mg/kg i.v.; read-out: Test A ED 50
Description: Test A: Antagonism with respect to ptosis observed one hour after an intravenous injection (2 mg/kg) of reserpine given to mice according to the protocol described by GOURET C. and THOMAS J. in J. Pharmacol. (Paris, (1973), 4, 401.

SMILES | ED50 [mg/kg]
CC(=O)OC[C@H]1C[C@@H](c2ccc(OCc3cccc([N+](=O)[O-])c3)cc2)C(=O)O1 (relative stereo) [7 B] | 2.5
COCC1C=C(c2ccc(OCc3ccccc3)cc2)C(=O)O1 (stereo not drawn) [Compound 20] | 4.4
N#Cc1cccc(COc2ccc(C3CC(CO)OC3=O)cc2)c1 (stereo not drawn) [Compound 12] | 10
O=C1O[C@@H](CO)C[C@@H]1c1ccc(OCc2cccc([N+](=O)[O-])c2)cc1 (relative stereo) [6 A] | 4.4
COCC1CC(c2ccc(OCCCCC#N)cc2)C(=O)O1 (stereo not drawn) [Compound 4] | 0.3
COCC1C=C(c2ccc(OCc3cccc(C#N)c3)cc2)C(=O)O1 (stereo not drawn) [Compound 14, 3-para(metacyanobenzyloxy)-phenyl-5-methoxymethyl-5H-furanone-2] | 0.68
COC[C@H]1C[C@@H](c2ccc(OCc3cc(C#N)cc([N+](=O)[O-])c3)cc2)C(=O)O1 (relative stereo) [17 B] | 0.32
COC[C@H]1C[C@@H](c2ccc(OCc3ccccc3)cc2)C(=O)O1 (relative stereo) [5 B] | 11.5
O=C1OC(CO)CC1c1ccc(OCc2cccc([N+](=O)[O-])c2)cc1 (stereo not drawn) [Compound 6, 3-para(metanitrobenzyloxy)phenyl-5-hydroxymethyl-3H-dihydrofuranone-2] | 1.4
O=C1OC(CO)CC1c1ccc(OCC2CCCCC2)cc1 (stereo not drawn) [Compound 2] | 5.5
COC[C@H]1C[C@@H](c2ccc(OCc3cccc([N+](=O)[O-])c3)cc2)C(=O)O1 (relative stereo) [8 B] | 0.58
COC[C@@H]1C[C@H](c2ccc(OCc3cccc(C#N)c3)cc2)C(=O)O1 (relative stereo) [13 B] | 0.9
O=C1O[C@@H](CO)C[C@H]1c1ccc(OCc2cccc([N+](=O)[O-])c2)cc1 (relative stereo) [6 B] | 1.6
COC[C@H]1C[C@H](c2ccc(OCc3ccc(F)c(Cl)c3)cc2)C(=O)O1 (relative stereo) [18 A] | 23
COCC1CC(c2ccc(OCc3cccnc3)cc2)C(=O)O1 (stereo not drawn) [Compound 15] | 5.8
COCC1C=C(c2ccc(OCc3cccc(Cl)c3)cc2)C(=O)O1 (stereo not drawn) [Compound 11] | 2.3
COC[C@H]1C[C@@H](c2ccc(OCc3ccc(F)c(Cl)c3)cc2)C(=O)O1 (relative stereo) [18 B] | 5.4
C#CCN(C)Cc1ccccc1 [PARGYLINE, reference compound] | 34
COCC1C=C(c2ccc(OCc3ccc(F)c(Cl)c3)cc2)C(=O)O1 (stereo not drawn) [Compound 19] | 2.1
N#Cc1cc(COc2ccc(C3CC(CO)OC3=O)cc2)cc([N+](=O)[O-])c1 (stereo not drawn) [Compound 16] | 1.2
COC[C@H]1C[C@@H](c2ccc(OCCCCCl)cc2)C(=O)O1 (relative stereo) [3 B] | 3.6
COCC1C=C(c2ccc(OCc3cccc([N+](=O)[O-])c3)cc2)C(=O)O1 (stereo not drawn) [Compound 9] | 0.22
COC[C@@H]1C[C@@H](c2ccc(OCc3cccc(C#N)c3)cc2)C(=O)O1 (relative stereo) [13 A] | 12
CC(C)CCOc1ccc(C2CC(CO)OC2=O)cc1 (stereo not drawn) [Compound 1] | 19
COC[C@H]1C[C@H](c2ccc(OCc3cccc(Cl)c3)cc2)C(=O)O1 (relative stereo) [10 A] | 24
COC[C@H]1C[C@@H](c2ccc(OCc3cccc(Cl)c3)cc2)C(=O)O1 (relative stereo) [10 B] | 15
COC[C@H]1C[C@H](c2ccc(OCc3cc(C#N)cc([N+](=O)[O-])c3)cc2)C(=O)O1 (relative stereo) [17 A] | 5.5
COC[C@H]1C[C@H](c2ccc(OCc3cccc([N+](=O)[O-])c3)cc2)C(=O)O1 (relative stereo) [8 A] | 6.2
CC(=O)OC[C@H]1C[C@H](c2ccc(OCc3cccc([N+](=O)[O-])c3)cc2)C(=O)O1 (relative stereo) [7 A] | 12.5

Same assay, conditions: Mus musculus, po, 1 h, read-out: Test A ED 50

SMILES | ED50 [mg/kg]
N[C@@H]1C[C@H]1c1ccccc1 (relative stereo) [TRANYLCYPROMINE, reference compound] | 1.55
C#CCN(C)C(C)Cc1ccccc1 (stereo not drawn) [reference compound] | 9
O=C(CCNNC(=O)c1ccncc1)NCc1ccccc1 [NIALAMIDE, reference compound] | 4.5

Test system: generalized trembling caused by dl-5-hydroxytryptophane
Assay: Test B: potentialization in mice of generalized trembling caused by dl-5-hydroxytryptophane
Type: in vivo
Settings: Mus musculus, po, read-out: Test B ED 50
Source text: Test B: Potentialization in mice of generalized trembling caused by an intraperitoneal injection of dl-5-hydroxytryptophane, according to the protocol described by GOURET C. and RAYNAUD G. in J. Pharmacol. (Paris), (1974), 5, 231.

SMILES | ED50 [mg/kg]
N[C@@H]1C[C@H]1c1ccccc1 (relative stereo) [TRANYLCYPROMINE, reference compound] | 1.37
C#CCN(C)C(C)Cc1ccccc1 (stereo not drawn) [reference compound] | 3
O=C(CCNNC(=O)c1ccncc1)NCc1ccccc1 [NIALAMIDE, reference compound] | 5.2

Same assay, conditions: Mus musculus; mice, oral; dl-5-hydroxytryptophane i.p.; read-out: Test B ED 50

SMILES | ED50 [mg/kg]
CC(=O)OC[C@H]1C[C@@H](c2ccc(OCc3cccc([N+](=O)[O-])c3)cc2)C(=O)O1 (relative stereo) [7 B] | 3.2
COCC1C=C(c2ccc(OCc3ccccc3)cc2)C(=O)O1 (stereo not drawn) [Compound 20] | 4
N#Cc1cccc(COc2ccc(C3CC(CO)OC3=O)cc2)c1 (stereo not drawn) [Compound 12] | 16
O=C1O[C@@H](CO)C[C@@H]1c1ccc(OCc2cccc([N+](=O)[O-])c2)cc1 (relative stereo) [6 A] | 5.8
COCC1CC(c2ccc(OCCCCC#N)cc2)C(=O)O1 (stereo not drawn) [Compound 4] | 0.19
COCC1C=C(c2ccc(OCc3cccc(C#N)c3)cc2)C(=O)O1 (stereo not drawn) [Compound 14, 3-para(metacyanobenzyloxy)-phenyl-5-methoxymethyl-5H-furanone-2] | 0.55
COC[C@H]1C[C@@H](c2ccc(OCc3cc(C#N)cc([N+](=O)[O-])c3)cc2)C(=O)O1 (relative stereo) [17 B] | 0.55
COC[C@H]1C[C@@H](c2ccc(OCc3ccccc3)cc2)C(=O)O1 (relative stereo) [5 B] | 15.5
O=C1OC(CO)CC1c1ccc(OCc2cccc([N+](=O)[O-])c2)cc1 (stereo not drawn) [Compound 6, 3-para(metanitrobenzyloxy)phenyl-5-hydroxymethyl-3H-dihydrofuranone-2] | 1.5
O=C1OC(CO)CC1c1ccc(OCC2CCCCC2)cc1 (stereo not drawn) [Compound 2] | 9
COC[C@H]1C[C@@H](c2ccc(OCc3cccc([N+](=O)[O-])c3)cc2)C(=O)O1 (relative stereo) [8 B] | 0.29
COC[C@@H]1C[C@H](c2ccc(OCc3cccc(C#N)c3)cc2)C(=O)O1 (relative stereo) [13 B] | 1.7
O=C1O[C@@H](CO)C[C@H]1c1ccc(OCc2cccc([N+](=O)[O-])c2)cc1 (relative stereo) [6 B] | 2
COC[C@H]1C[C@H](c2ccc(OCc3ccc(F)c(Cl)c3)cc2)C(=O)O1 (relative stereo) [18 A] | 16
COCC1CC(c2ccc(OCc3cccnc3)cc2)C(=O)O1 (stereo not drawn) [Compound 15] | 12
COCC1C=C(c2ccc(OCc3cccc(Cl)c3)cc2)C(=O)O1 (stereo not drawn) [Compound 11] | 1.6
COC[C@H]1C[C@@H](c2ccc(OCc3ccc(F)c(Cl)c3)cc2)C(=O)O1 (relative stereo) [18 B] | 3.1
C#CCN(C)Cc1ccccc1 [PARGYLINE, reference compound] | 48
COCC1C=C(c2ccc(OCc3ccc(F)c(Cl)c3)cc2)C(=O)O1 (stereo not drawn) [Compound 19] | 2.4
N#Cc1cc(COc2ccc(C3CC(CO)OC3=O)cc2)cc([N+](=O)[O-])c1 (stereo not drawn) [Compound 16] | 3.5
COC[C@H]1C[C@@H](c2ccc(OCCCCCl)cc2)C(=O)O1 (relative stereo) [3 B] | 1.7
COC[C@@H]1C[C@@H](c2ccc(OCc3cccc(C#N)c3)cc2)C(=O)O1 (relative stereo) [13 A] | 20
CC(C)CCOc1ccc(C2CC(CO)OC2=O)cc1 (stereo not drawn) [Compound 1] | 14
COC[C@H]1C[C@H](c2ccc(OCc3cccc(Cl)c3)cc2)C(=O)O1 (relative stereo) [10 A] | 10
COC[C@H]1C[C@@H](c2ccc(OCc3cccc(Cl)c3)cc2)C(=O)O1 (relative stereo) [10 B] | 10
COC[C@H]1C[C@H](c2ccc(OCc3cc(C#N)cc([N+](=O)[O-])c3)cc2)C(=O)O1 (relative stereo) [17 A] | 6.4
COC[C@H]1C[C@H](c2ccc(OCc3cccc([N+](=O)[O-])c3)cc2)C(=O)O1 (relative stereo) [8 A] | 4.4
CC(=O)OC[C@H]1C[C@H](c2ccc(OCc3cccc([N+](=O)[O-])c3)cc2)C(=O)O1 (relative stereo) [7 A] | 10
